Assay results as given in article PMC12261228 (ACS Pharmacology & Translational Science, 2025).

Legend:
Experiment in all cases: MTS cytotoxicity assay, 72 h
[1] = system: CCRF-CEM; format: cell-based; conditions: Homo sapiens, CCRF-CEM, 72 h; MTS assay, 3-day incubation, mean ± SD of 3 experiments; read-out: IC50 CCRF-CEM
[2] = system: K562; format: cell-based; conditions: Homo sapiens, K562, 72 h; MTS assay, 3-day incubation, mean ± SD; read-out: IC50 K562
[3] = system: HCT116; format: cell-based; conditions: Homo sapiens, HCT-116, 72 h; MTS assay, 3-day incubation, mean ± SD; read-out: IC50 HCT116
[4] = system: HCT116p53–/–; format: cell-based; conditions: MTS assay, 3-day incubation, mean ± SD, read-out: IC50 HCT116p53–/–
[5] = system: U2OS; format: cell-based, human; conditions: Homo sapiens, U2OS, 72 h; MTS assay, 3-day incubation, mean ± SD; read-out: IC50 U2OS
[6] = system: MRC-5; format: cell-based; conditions: Homo sapiens, MRC5, 72 h; normal fibroblasts; MTS assay, 3-day incubation, mean ± SD; read-out: IC50 MRC-5
[7] = system: BJ; format: cell-based; conditions: Homo sapiens, normal fibroblasts, MTS assay, 3-day incubation, mean ± SD, read-out: IC50 BJ
[8] = system: A549; format: cell-based; conditions: Homo sapiens, Fig. S22
Protocol: Cell suspensions were prepared and diluted according to the particular cell type and the expected target cell density (500 – 4,000 cells/well). The cells (30 μL/well) were seeded to 384-well clear Corning plates by MultiDrop Combi (Thermo Fisher Scientific, USA). After 24 h the cells were treated with tested compounds as well as with vehicle (DMSO) and high controls (2.67 μM of Actinomycin D and 100 μM Mitomycin C) using contact-free acoustic liquid handler ECHO 555 (Labcyte, USA). Compounds were analyzed at a concentration range from 0.012 μM to 50 μM. Treated cells were incubated at 37 °C in a 5% CO2 atmosphere of a humidified incubator for 72 h. At the end of the incubation period, aliquots of the MTS (Promega) solution prepared according to manufacturer's instructions were added to cells (https://worldwide.promega.com/resources/protocols/technical-bulletins/0/celltiter-96-aqueous-nonradioactive-cell-proliferation-assay-protocol/). After 1 – 4 h of the incubation period, the optical density (OD) at 490 nm was measured on a multimode plate reader EnVision (PerkinElmer, USA). The experiments were performed in technical duplicates and at least three biological replicates. […] The assay quality was monitored by determining the Z′-factor for each 384-well plate. The resistance index (RI), representing the reduction in compound activity on resistant cell lines, was calculated as RI = (IC50 of resistant cell lines, CEM-DNR, K562-TAX)/(IC50 of nonresistant counterparts, CCRF-CEM, K562). Similarly, the selectivity index (SI), indicating preferential cytotoxicity toward tumor cell lines, was calculated as SI = (mean IC50 of nontumor cell lines, BJ and MRC5)/(mean IC50 of cancer cell lines without resistant variants, CCRF-CEM, K562, HCT116, HCT116p53–/–, U2OS).

[9] = system: CEM-DNR; format: cell-based; conditions: Homo sapiens, daunorubicin-resistant, MTS assay, 3-day incubation, mean ± SD, read-out: IC50 CEM-DNR
[10] = system: K562-TAX; format: cell-based; conditions: paclitaxel-resistant, MTS assay, 3-day incubation, mean ± SD, read-out: IC50 K562-TAX

In the case of CC1=CC(C)=[N+]2C1=C(CCC(=O)O)c1c(C)cc(C)n1[B-]2(F)F [B1], the IC50 [1] is reported as > 50 µM, the IC50 [2] is reported as > 50 µM and the IC50 [3] is reported as > 50 µM. The IC50 [4] was > 50 µM, the IC50 [5] was > 50 µM and the IC50 [6] was > 50 µM. The IC50 [7] was > 50 µM and the IC50 [8] was > 50 µM.
For CC1=CC(C)=[N+]2C1=C(CCCCCCCCCCC(=O)O)c1c(C)cc(C)n1[B-]2(F)F [B2], the IC50 [1] was > 50 µM, the IC50 [2] was > 50 µM and the IC50 [3] was > 50 µM. For the same compound, the IC50 [4] was > 50 µM, the IC50 [5] was > 50 µM and the IC50 [6] was > 50 µM. For the same compound, the IC50 [7] was > 50 µM and the IC50 [8] was > 50 µM.
CC1=CC(C)=[N+]2C1=C(CCCCBr)c1c(C)cc(C)n1[B-]2(F)F [B3, difluoro-1,3,5,7-tetramethyl-4-bora-3a,4a-diaza-s-indacene-8-yl)butyl bromide] was tested, and the IC50 [1] was > 50 µM, the IC50 [9] was > 50 µM and the IC50 [2] was > 50 µM. The IC50 [10] was > 50 µM, the IC50 [3] was > 50 µM and the IC50 [4] was > 50 µM. For the same compound, the IC50 [5] was > 50 µM, the IC50 [6] was > 50 µM and the IC50 [7] was > 50 µM. The IC50 [8] was > 50 µM.
In the case of CC1=CC(C)=[N+]2C1=C(CCCCN)c1c(C)cc(C)n1[B-]2(F)F [B4], the IC50 [1] is reported as 32.9 µM, the IC50 [9] is reported as > 50 µM and the IC50 [2] is reported as > 50 µM. The IC50 [10] was > 50 µM, the IC50 [3] was > 50 µM and the IC50 [4] was > 50 µM. For the same compound, the IC50 [5] was > 50 µM, the IC50 [6] was > 50 µM and the IC50 [7] was > 50 µM. For the same compound, the IC50 [8] was > 50 µM.
In the case of CNCCCCC1=C2C(C)=CC(C)=[N+]2[B-](F)(F)n2c(C)cc(C)c21 [B5], the IC50 [1] is reported as 27.8 µM, the IC50 [9] is reported as 36.3 µM and the IC50 [2] is reported as > 50 µM. The IC50 [10] was 35.8 µM, the IC50 [3] was > 50 µM and the IC50 [4] was > 50 µM. The IC50 [5] was > 50 µM, the IC50 [6] was > 50 µM and the IC50 [7] was > 50 µM. The IC50 [8] was > 50 µM.
